Experimental data taken from ChEMBL document CHEMBL4706632, “Development of Potential Antitumor Agents from the Scaffolds of Plant-Derived Terpenoid Lactones” (J Med Chem, 2020).

Key:
MDA-MB-435 = experiment: Antiproliferative activity against human MDA-MB-435 cells incubated for 48 hrs by [3H]-thymidine incorporation assay; format: functional, cell-based
MCF7 [1] = experiment: Antiproliferative activity against human MCF7 cells incubated for 48 hrs by [3H]-thymidine incorporation assay; format: functional, cell-based
[2] = Inhibition of PAFR in New Zealand rabbit platelets assessed as reduction in PAF-induced platelet aggregation measured within 5 mins by aggregometry analysis; format: tissue-based; settings: Oryctolagus cuniculus
MCF7 [3] = experiment: Cytotoxicity against human MCF-7 cells incubated for 72 hrs by MTT assay; format: functional, cell-based; settings: MCF7, 72 h
MDA-MB-231 [4] = experiment: Cytotoxicity against human MDA-MB-231 cells incubated for 72 hrs by MTT assay; format: functional, cell-based; settings: MDA-MB-231, 72 h
HCT-116 [5] = experiment: Antiproliferative activity against human HCT-116 cells incubated for 72 hrs by WST-1 assay; format: functional, cell-based; settings: HCT-116, 72 h
P388 = experiment: Antiproliferative activity against mouse P388 cells; format: functional, cell-based
MDA-MB-231 [6] = experiment: Cytotoxicity against human MDA-MB-231 cells incubated for 48 hrs by MTT assay; format: functional, cell-based; settings: MDA-MB-231, 48 h
PANC-1 = experiment: Cytotoxicity against human Panc-1 cells incubated for 48 hrs by MTT assay; format: functional, cell-based; settings: PANC-1, 48 h
HepG2 = experiment: Cytotoxicity against human HepG2 cells incubated for 48 hrs by MTT assay; format: functional, cell-based; settings: HepG2, 48 h
AGS = experiment: Cytotoxicity against human AGS cells incubated for 48 hrs by MTT assay; format: functional, cell-based
HeLa = experiment: Cytotoxicity against human HeLa cells incubated for 48 hrs by MTT assay; format: functional, cell-based
A-431 = experiment: Antiproliferative activity against human A-431 cells incubated for 72 hrs by Sulforhodamine B assay; format: functional, cell-based; settings: A-431, 72 h
A549 = experiment: Antiproliferative activity against human A549 cells incubated for 72 hrs by Sulforhodamine B assay; format: functional, cell-based; settings: A549, 72 h
[7] = Antiproliferative activity against human U87-MG cells incubated for 72 hrs by Sulforhodamine B assay; format: functional, cell-based; settings: U-87 MG
HCT-116 [8] = experiment: Cytotoxicity against human HCT116 cells incubated for 72 hrs by ATPlite assay; format: functional, cell-based; settings: HCT-116, 72 h
WM 266-4 = experiment: Cytotoxicity against human WM 266-4 cells incubated for 72 hrs by ATPlite assay; format: functional, cell-based; settings: WM 266-4, 72 h

**Q.** For `CC1(C)O[C@H]2CC(=O)OC[C@@]23[C@H]1CC(=O)[C@@]1(C)C2=CC(=O)O[C@@H](c4ccoc4)[C@]2(C)CC[C@@H]13`, which IC50 (MDA-MB-435) is on record?
**A.** Its IC50 is 1700 nM.

**Q.** And the IC50 (MCF7 [1])?
**A.** The IC50 was 5500 nM.

**Q.** With `Cc1ccccc1Cn1cc(CO[C@H]2C(=O)O[C@H]3O[C@]45C(=O)O[C@@H]6C[C@@H](C(C)(C)C)[C@@]32[C@@]64[C@@H](O)[C@@H]2OC(=O)[C@@H](C)[C@@]25O)nn1` as the compound, how does the IC50 [2] read?
**A.** The IC50 was 5.7 nM.

**Q.** With `COC(=O)[C@@]12OC[C@]34[C@H]([C@@H](O)[C@@H]1O)[C@@]1(C)C=C(O[C@@H]5O[C@H](CO)[C@@H](O)[C@H](O)[C@H]5O)C(=O)[C@@H](C)[C@@H]1C[C@H]3OC(=O)[C@H](OC(=O)C=C(C)C)[C@@H]24` [BRUCEOSIDE A] as the compound, how does the IC50 (MCF7 [3]) read?
**A.** Its IC50 is greater than 50000 nM.

**Q.** What about the IC50 (MDA-MB-231 [4]) of the same compound?
**A.** The IC50 was greater than 50000 nM.

**Q.** With `COC(=O)[C@@]12OC[C@]34[C@H]([C@@H](O)[C@@H]1O)[C@@]1(C)CC(=O)C(O)=C(C)[C@@H]1C[C@H]3OC(=O)[C@H](OC(=O)/C=C(\C)C(C)(C)O)[C@@H]24` as the compound, how does the IC50 (HCT-116 [5]) read?
**A.** The IC50 was 250 nM.

**Q.** For `CC(=O)OC1OC[C@@]23[C@H]4C(=O)C(OC(C)=O)[C@@]5(C)[C@H](c6ccoc6)C[C@H]6O[C@]65[C@]4(C)[C@H](O)C[C@H]2[C@]1(C)[C@H](OC(C)=O)C[C@@H]3O` (some centres not stated), which IC50 (P388) is on record?
**A.** The IC50 was 16 nM.

**Q.** For `CC(C)c1oc(=O)cc2c1[C@@H](O)[C@H]1OC(=O)[C@@]3(C)[C@@H](O)[C@H]4O[C@H]4[C@@]2(C)[C@@H]13` [NAGILACTONE C], which IC50 (MDA-MB-231 [6]) is on record?
**A.** The IC50 was 5000 nM.

**Q.** And the IC50 (PANC-1)?
**A.** Its IC50 is greater than 40000 nM.

**Q.** What about the IC50 (HepG2) of the same compound?
**A.** Its IC50 is 14000 nM.

**Q.** And the IC50 (AGS)?
**A.** Its IC50 is 2300 nM.

**Q.** And the IC50 (HeLa)?
**A.** Its IC50 is 3300 nM.

**Q.** Which IC50 (P388) does the source give for `C=C[C@H]1OC(=O)C=C2C1=C[C@H]1OC(=O)[C@@]3(C)CCC[C@@]2(C)[C@@H]13` here?
**A.** Its IC50 is 160 nM.

**Q.** Which results are given for `CC(=O)O[C@H]1CC(=O)OC(C)(C)[C@@H]2CC(=O)[C@]3(C)[C@H](CC[C@@]4(C)[C@H](c5ccoc5)OC(=O)[C@H]5O[C@]543)[C@@]12C`?
**A.** IC50 (MDA-MB-435): 780 nM; IC50 (MCF7 [1]): 97 nM

**Q.** Which IC50 (MDA-MB-231 [6]) does the source give for `CC(C)[C@H]1OC(=O)C=C2C1=C[C@H]1OC(=O)[C@@]3(C)CCC[C@@]2(C)[C@@H]13` [NAGILACTONE F] here?
**A.** The IC50 was 1000 nM.

**Q.** And the IC50 (P388)?
**A.** Its IC50 is 280 nM.

**Q.** What about the IC50 (PANC-1) of the same compound?
**A.** The IC50 was 19000 nM.

**Q.** What about the IC50 (HepG2) of the same compound?
**A.** Its IC50 is 1300 nM.

**Q.** What about the IC50 (AGS) of the same compound?
**A.** The IC50 was 500 nM.

**Q.** And the IC50 (HeLa)?
**A.** The IC50 was 720 nM.

**Q.** For `C=C1[C@@H](O)C[C@H]2C(C)(C)C[C@H](Cl)C[C@]2(C)[C@H]1C[C@H](O)[C@H]1CC(=O)NC1=O` [CHLOROLISSOCLIMIDE], which IC50 (P388) is on record?
**A.** Its IC50 is 4 nM.

**Q.** With `C=C[C@H]1OC(=O)C=C2[C@]3(C)[C@H]4[C@H](OC(=O)[C@@]4(C)[C@@H](O)[C@H]4O[C@H]43)[C@H]3O[C@@]231` as the compound, how does the IC50 (MDA-MB-231 [6]) read?
**A.** The IC50 was 660 nM.

**Q.** What about the IC50 (PANC-1) of the same compound?
**A.** The IC50 was 8500 nM.

**Q.** And the IC50 (HepG2)?
**A.** The IC50 was 3500 nM.

**Q.** And the IC50 (AGS)?
**A.** The IC50 was 550 nM.

**Q.** What about the IC50 (HeLa) of the same compound?
**A.** The IC50 was 620 nM.

**Q.** Which results are given for `CC1(C)OC(=O)C[C@H](O)[C@]2(C)[C@H]3CC[C@@]4(C)[C@H](c5ccoc5)OC(=O)[C@H]5O[C@]54[C@]3(C)C(=O)C[C@@H]12`?
**A.** IC50 (MDA-MB-435): 150 nM; IC50 (MCF7 [1]): 10 nM

**Q.** For `Cc1ccccc1Cn1cc(CO[C@H]2C(=O)O[C@H]3O[C@]45C(=O)O[C@@H]6[C@H](O)[C@@H](C(C)(C)C)[C@@]32[C@@]64[C@@H](O)[C@@H]2OC(=O)[C@@H](C)[C@@]25O)nn1`, which IC50 [2] is on record?
**A.** Its IC50 is 38 nM.

**Q.** For `CC(=O)O[C@@H]1C[C@H](O)[C@@]23COC(O)[C@]1(C)[C@@H]2C[C@@H](O)[C@@]1(C)[C@@H]2C(=O)C[C@@H](c4ccoc4)[C@]2(C)CC(=O)[C@@H]13` (some centres not stated), which IC50 (P388) is on record?
**A.** The IC50 was 58000 nM.

**Q.** With `C=C1[C@@H](O)C[C@H]2C(C)(C)[C@@H](Cl)[C@H](Cl)C[C@]2(C)[C@H]1C[C@H](O)[C@H]1CC(=O)NC1=O` [DICHLOROLISSOCLIMIDE] as the compound, how does the IC50 (P388) read?
**A.** The IC50 was 2 nM.

**Q.** Which IC50 (A-431) does the source give for `C[C@H](CO)[C@H]1OC(=O)C=C2[C@@]13O[C@@H]3[C@H]1OC(=O)[C@@]3(C)[C@@H](O)CC[C@@]2(C)[C@@H]13` here?
**A.** The IC50 was 4600 nM.

**Q.** And the IC50 (A549)?
**A.** The IC50 was 1100 nM.

**Q.** And the IC50 [7]?
**A.** The IC50 was 4000 nM.

**Q.** What does the source list for `C/C(C=O)=C\[C@H]1C[C@@H]([C@@H]2CC[C@]34C[C@]23C=C[C@@H]2[C@@]3(C)CC=C5C[C@@H](c6ccccc6)OC[C@]5(C)[C@@H]3C[C@@H](O)[C@]24C)C(=O)O1`?
**A.** IC50 (HCT-116 [8]): 92 nM; IC50 (WM 266-4): 1500 nM
